# Laboratory results: patent US9604961B2, “Histone demethylase inhibitors” (Celgene Quanticel Research, Inc., priority 2012, dated 2017)
# Tests used:
# [1] = molecular target: Jarid1A (Homo sapiens (Human), UniProt P29375); assay: Jarid1A in vitro enzyme inhibition assay (TR-FRET); format: biochemical
# Source text: The enzymatic assay of Jarid1A activity is based upon Time Resolved-Fluorescence Resonance Energy Transfer (TR-FRET) detection.
# [2] = molecular target: Jarid1B (Homo sapiens (Human), UniProt Q9UGL1); assay: Jarid1B in vitro enzyme inhibition assay (TR-FRET); format: biochemical
# [3] = molecular target: JMJD2C (Homo sapiens (Human), UniProt Q9H3R0); assay: JMJD2C in vitro enzyme inhibition assay (TR-FRET); format: biochemical
# Experimental: Baculovirus expressed JMJD2C (GenBank Accession #BC143571, AA 2-372) was purchased from BPS Bioscience (Cat#50105).
# The ability of test compounds to inhibit the activity of JMJD2C was determined in 384-well plate format under the following reaction conditions: 0.3 nM JMJD2C, 300 nM H3K9me3-biotin labeled peptide (Anaspec cat #64360), 2 μM alpha-ketoglutaric acid in assay buffer of 50 mM HEPES, pH7.3, 0.005% Brij35, 0.5 mM TCEP, 0.2 mg/ml BSA, 50 μM sodium L-ascorbate, and 2 μM ammonium iron(II) sulfate. Reaction product was determined quantitatively by TR-FRET after the addition of detection reagent Phycolink Streptavidin-allophycocyanin (Prozyme) and Europium-anti-di-methylated histone H3 lysine 9 (H3K9me2) antibody (PerkinElmer) in the presence of 5 mM EDTA in LANCE detection buffer (PerkinElmer) at a final concentration of 50 nM and 1 nM, respectively.
# The assay reaction was initiated by the following: 2 μl of the mixture of 900 nM H3K9me3-biotin labeled peptide and 6 μM alpha-ketoglutaric acid with 2 μl of 11-point serial diluted inhibitor in 3% DMSO were added to each well of the plate, followed by the addition of 2 μl of 0.9 nM JMJD2C to initiate the reaction. The reaction mixture was incubated at room temperature for 30 minutes, and terminated by the addition of 6 μl of 5 mM EDTA in LANCE detection buffer containing 100 nM Phycolink Streptavidin-allophycocyanin and 2 nM Europium-anti-H3K9me2 antibody. Plates were read by EnVisionMultilabel Reader in TR-FRET mode (excitation at 320 nm, emission at 615 nm and 665 nm) after 1 hour incubation at room temperature. A ratio was calculated (665/615) for each well and fitted to determine inhibition constant (IC50).
# [4] = molecular target: FBXL10 (Homo sapiens (Human), UniProt Q8NHM5); assay: FBXL10 in vitro enzyme inhibition assay (AlphaScreen); format: biochemical
# Experimental: Reaction product was determined quantitatively by AlphaScreen detection after the addition of detection reagents anti-H3K36me1 antibody, AlphaScreen® Streptavidin-coated Donor beads, and AlphaScreen® Protein A Acceptor beads in 50 mM HEPES, pH7.3, 10 mM NaCl, 0.005% Brij35, 5 mM EDTA, 2 mg/ml BSA to final 10 μg/ml beads.
# Plates were incubated at room temperature for 40 minutes, followed by addition of 3 μl of 50 μg/ml AlphaScreen® Streptavidin-coated Donor beads and AlphaScreen® Protein A Acceptor beads in 50 mM HEPES, pH7.3, 10 mM NaCl, 0.005% Brij35, 5 mM EDTA, 2 mg/ml BSA. Plates were read by EnVisionMultilabel Reader in AlphaScreen mode after a minimum of 2 hour or up to overnight incubation at room temperature. The AlphaScreen signal for each well was used to determine inhibition constant (IC50).
# [5] = molecular target: JMJD2A (Homo sapiens (Human), UniProt O75164); assay: JMJD2A in vitro enzyme inhibition assay (TR-FRET); details: read-out: JMJD2A IC50
# Sequence of JMJD2A (O75164 1-350): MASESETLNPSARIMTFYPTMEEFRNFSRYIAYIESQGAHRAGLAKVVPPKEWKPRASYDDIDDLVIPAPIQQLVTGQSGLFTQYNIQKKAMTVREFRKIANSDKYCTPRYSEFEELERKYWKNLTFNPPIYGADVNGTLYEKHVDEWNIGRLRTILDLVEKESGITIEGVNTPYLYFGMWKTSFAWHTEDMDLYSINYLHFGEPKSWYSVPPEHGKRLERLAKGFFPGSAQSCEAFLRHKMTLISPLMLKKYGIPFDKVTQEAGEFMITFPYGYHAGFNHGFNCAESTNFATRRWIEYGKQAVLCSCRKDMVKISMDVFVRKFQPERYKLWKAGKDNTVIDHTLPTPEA
# Experimental: This assay determines the ability of a test compound to inhibit Jarid1A, Jarid1B, JMJD2C, and JMJD2A demethylase activity.
# Reaction product was determined quantitatively by TR-FRET after the addition of detection reagent Phycolink Streptavidin-allophycocyanin (Prozyme) and Europium-anti-di-methylated histone H3 lysine 9 (H3K9me2) antibody (PerkinElmer) in the presence of 5 mM EDTA in LANCE detection buffer (PerkinElmer) at a final concentration of 50 nM and 1 nM, respectively.
# The assay reaction was initiated by the following: 2 μl of the mixture of 900 nM H3K9me3-biotin labeled peptide and 6 μM alpha-ketoglutaric acid with 2 μl of 11-point serial diluted inhibitor in 3% DMSO were added to each well of plate, followed by the addition of 2 μl of 6 nM JMJD2A to initiate the reaction. The reaction mixture was incubated at room temperature for 30 minutes, and terminated by the addition of 6 μl of 5 mM EDTA in LANCE detection buffer containing 100 nM Phycolink Streptavidin-allophycocyanin and 2 nM Europium-anti-H3K9me2 antibody.
# Sequence of JMJD2C (Q9H3R0 2-372): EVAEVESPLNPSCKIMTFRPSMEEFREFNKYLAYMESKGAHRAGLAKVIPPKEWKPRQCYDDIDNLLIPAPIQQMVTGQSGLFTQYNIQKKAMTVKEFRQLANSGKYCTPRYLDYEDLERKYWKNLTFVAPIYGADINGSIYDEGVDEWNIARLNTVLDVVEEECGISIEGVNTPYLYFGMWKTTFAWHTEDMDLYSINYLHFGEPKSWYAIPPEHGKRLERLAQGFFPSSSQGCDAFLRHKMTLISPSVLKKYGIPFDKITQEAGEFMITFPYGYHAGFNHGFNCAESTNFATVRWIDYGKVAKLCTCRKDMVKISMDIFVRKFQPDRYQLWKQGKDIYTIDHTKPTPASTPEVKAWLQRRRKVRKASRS
# Sequence of Jarid1A (P29375 1-1090): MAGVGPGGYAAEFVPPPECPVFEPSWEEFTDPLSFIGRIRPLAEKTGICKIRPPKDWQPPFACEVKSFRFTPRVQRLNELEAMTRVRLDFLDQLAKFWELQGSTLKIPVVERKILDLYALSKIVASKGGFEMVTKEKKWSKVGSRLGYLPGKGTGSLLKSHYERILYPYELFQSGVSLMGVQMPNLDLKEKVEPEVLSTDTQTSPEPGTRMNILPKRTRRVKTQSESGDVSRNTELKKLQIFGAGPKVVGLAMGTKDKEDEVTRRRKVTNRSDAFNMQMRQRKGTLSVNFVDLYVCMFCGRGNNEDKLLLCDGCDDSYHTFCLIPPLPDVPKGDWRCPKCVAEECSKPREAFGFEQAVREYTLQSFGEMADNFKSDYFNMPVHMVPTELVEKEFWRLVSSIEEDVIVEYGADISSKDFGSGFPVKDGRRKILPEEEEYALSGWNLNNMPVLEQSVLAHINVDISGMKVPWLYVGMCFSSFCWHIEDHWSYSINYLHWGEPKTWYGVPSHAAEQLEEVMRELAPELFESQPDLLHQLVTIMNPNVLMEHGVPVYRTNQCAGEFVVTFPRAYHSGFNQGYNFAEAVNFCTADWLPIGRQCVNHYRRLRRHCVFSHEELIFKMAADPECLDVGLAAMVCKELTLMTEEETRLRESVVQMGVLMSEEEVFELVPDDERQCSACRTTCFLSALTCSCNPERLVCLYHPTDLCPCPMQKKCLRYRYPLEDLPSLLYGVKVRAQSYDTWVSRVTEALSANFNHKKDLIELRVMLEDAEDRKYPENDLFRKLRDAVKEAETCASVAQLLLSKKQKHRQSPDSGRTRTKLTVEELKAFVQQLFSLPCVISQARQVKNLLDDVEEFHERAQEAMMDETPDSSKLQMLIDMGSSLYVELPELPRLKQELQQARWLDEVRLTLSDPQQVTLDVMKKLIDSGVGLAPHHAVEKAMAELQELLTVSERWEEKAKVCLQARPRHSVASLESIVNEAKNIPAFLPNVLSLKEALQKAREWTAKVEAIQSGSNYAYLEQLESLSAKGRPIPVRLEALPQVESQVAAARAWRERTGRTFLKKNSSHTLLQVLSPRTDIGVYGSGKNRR
# Sequence of Jarid1B (Q9UGL1 2-751): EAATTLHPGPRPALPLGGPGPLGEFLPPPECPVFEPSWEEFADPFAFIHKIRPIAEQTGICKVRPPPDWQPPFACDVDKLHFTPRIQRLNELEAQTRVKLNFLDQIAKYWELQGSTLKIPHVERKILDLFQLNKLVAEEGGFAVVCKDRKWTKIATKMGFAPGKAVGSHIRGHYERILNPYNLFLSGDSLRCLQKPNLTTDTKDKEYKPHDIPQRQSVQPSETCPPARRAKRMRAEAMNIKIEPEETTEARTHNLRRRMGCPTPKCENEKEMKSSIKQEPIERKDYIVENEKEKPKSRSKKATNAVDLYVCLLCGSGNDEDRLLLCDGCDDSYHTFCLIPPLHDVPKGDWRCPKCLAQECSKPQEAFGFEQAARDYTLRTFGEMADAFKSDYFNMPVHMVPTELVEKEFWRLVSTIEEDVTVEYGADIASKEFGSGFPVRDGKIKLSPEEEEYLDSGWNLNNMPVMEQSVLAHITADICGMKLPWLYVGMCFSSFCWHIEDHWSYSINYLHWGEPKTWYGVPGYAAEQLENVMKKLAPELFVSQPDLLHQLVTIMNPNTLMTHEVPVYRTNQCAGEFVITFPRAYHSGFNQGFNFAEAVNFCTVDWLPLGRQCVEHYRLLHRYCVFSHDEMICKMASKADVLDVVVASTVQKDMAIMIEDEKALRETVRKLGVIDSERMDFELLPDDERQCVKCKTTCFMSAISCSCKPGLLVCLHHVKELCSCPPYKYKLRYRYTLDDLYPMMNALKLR
# Sequence of FBXL10 (Q8NHM5 1-650): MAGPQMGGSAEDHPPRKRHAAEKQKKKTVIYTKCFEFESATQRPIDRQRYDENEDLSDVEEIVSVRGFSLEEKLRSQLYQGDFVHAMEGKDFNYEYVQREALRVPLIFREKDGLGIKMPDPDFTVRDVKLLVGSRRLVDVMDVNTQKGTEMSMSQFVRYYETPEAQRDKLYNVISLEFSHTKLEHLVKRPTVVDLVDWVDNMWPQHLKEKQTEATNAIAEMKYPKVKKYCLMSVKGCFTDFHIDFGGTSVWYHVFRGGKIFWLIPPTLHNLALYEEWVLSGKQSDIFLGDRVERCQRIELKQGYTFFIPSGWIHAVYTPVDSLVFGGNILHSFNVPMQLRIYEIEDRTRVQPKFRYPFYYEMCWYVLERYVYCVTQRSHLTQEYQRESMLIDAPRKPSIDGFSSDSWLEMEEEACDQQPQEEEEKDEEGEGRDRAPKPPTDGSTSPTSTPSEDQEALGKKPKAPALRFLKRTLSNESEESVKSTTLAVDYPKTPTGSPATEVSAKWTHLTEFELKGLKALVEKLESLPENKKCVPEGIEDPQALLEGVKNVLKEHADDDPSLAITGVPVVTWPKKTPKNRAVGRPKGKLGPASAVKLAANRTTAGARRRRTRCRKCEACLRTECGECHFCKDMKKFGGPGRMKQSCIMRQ
SMILES,IC50 [1] [nM],IC50 [2] [nM],IC50 [3] [nM],IC50 [4] [nM],IC50 [5] [nM]
"O=C(O)c1ccnc(-n2nccc2OCc2ccc(Cl)cc2OCc2ccccc2)c1 [Example 105, 2-[5-[(4-chloro-2-phenylmethoxyphenyl)methoxy]pyrazol-1-yl]pyridine-4-carboxylic acid]",< 100,< 100,100 to 1000,100 to 1000,–
"O=C(O)c1ccnc(-n2nccc2O)c1 [Example 11, 2-(5-hydroxy-1H-pyrazol-1-yl)isonicotinic acid]",< 100,< 100,100 to 1000,100 to 1000,–
"O=C(O)c1ccnc(-n2nccc2OCc2ccc3cn[nH]c3c2)c1 [Example 49, 2-[5-(1H-indazol-6-ylmethoxy)-1H-pyrazol-1-yl]pyridine-4-carboxylic acid]",100 to 1000,100 to 1000,1000 to 10000,100 to 1000,–
"CC(C)(c1ccc(Cl)cc1)c1cc(O)n(-c2cc(C(=O)O)ccn2)n1 [Example 170, 2-[3-[2-(4-chlorophenyl)propan-2-yl]-5-hydroxypyrazol-1-yl]pyridine-4-carboxylic acid]",–,–,1000 to 10000,< 100,–
"O=C(O)c1ccnc(-n2ccc(CCc3ccccc3)n2)c1 [Example 35, 2-(3-phenethyl-1H-pyrazol-1-yl)isonicotinic acid]",100 to 1000,100 to 1000,100 to 1000,–,100 to 1000
"Cc1ccc(-c2ccnn2-c2cc(C(=O)O)ccn2)cc1 [Example 12, 2-(5-p-tolyl-1H-pyrazol-1-yl)isonicotinic acid]",100 to 1000,100 to 1000,100 to 1000,–,100 to 1000
"O=C(O)c1ccnc(-n2nccc2-c2cccc(O)c2)c1 [Example 17, 2-(5-(3-hydroxyphenyl)-1H-pyrazol-1-yl)isonicotinic acid]",100 to 1000,100 to 1000,100 to 1000,–,100 to 1000
"Cc1nn(-c2cc(C(=O)O)ccn2)c(O)c1C [Example 3, 2-(5-hydroxy-3,4-dimethyl-1H-pyrazol-1-yl)isonicotinic acid]",100 to 1000,< 100,100 to 1000,100 to 1000,–
"O=C(O)c1ccnc(-n2nc(-c3ccccc3F)cc2O)c1 [Example 5, 2-(3-(2-fluorophenyl)-5-hydroxy-1H-pyrazol-1-yl)isonicotinic acid]",1000 to 10000,1000 to 10000,1000 to 10000,< 100,–
"O=C(O)c1ccnc(-n2nc(C3(c4ccc(Cl)cc4)CC3)cc2O)c1 [Example 171, 2-[3-[1-(4-chlorophenyl)cyclopropyl]-5-hydroxypyrazol-1-yl]pyridine-4-carboxylic acid]",–,–,1000 to 10000,< 100,–
"O=C(O)c1ccnc(-n2nc(Cc3ccccc3)cc2O)c1 [Example 8, 2-(3-benzyl-5-hydroxy-1H-pyrazol-1-yl)isonicotinic acid]",100 to 1000,100 to 1000,1000 to 10000,< 100,–
"N#Cc1ccc(COc2ccnn2-c2cc(C(=O)O)ccn2)cc1 [Example 99, 2-[5-[(4-cyanophenyl)methoxy]pyrazol-1-yl]pyridine-4-carboxylic acid]",< 100,< 100,< 100,1000 to 10000,–
"CCc1ccc(COc2ccnn2-c2cc(C(=O)O)ccn2)cc1 [Example 56, 2-{5-[(4-ethylbenzyl)oxy]-1H-pyrazol-1-yl}pyridine-4-carboxylic acid]",< 100,< 100,100 to 1000,1000 to 10000,–
"CC(c1ccccc1)c1cc(O)n(-c2cc(-c3nnn[nH]3)ccn2)n1 (centres unmarked) [Example 166, 5-(1-phenylethyl)-2-[4-(1H-tetrazol-5-yl)pyridin-2-yl]pyrazol-3-ol]",–,–,1000 to 10000,< 100,–
"O=C(O)c1ccnc(-n2nccc2OCc2ccc(Cl)cc2OCC2CC2)c1 [Example 106, 2-[5-[[4-chloro-2-(cyclopropylmethoxy)phenyl]methoxy]pyrazol-1-yl]pyridine-4-carboxylic acid]",< 100,< 100,100 to 1000,1000 to 10000,–
"CCCc1cc(O)n(-c2cc(C(=O)O)ccn2)n1 [Example 6, 2-(5-hydroxy-3-propyl-1H-pyrazol-1-yl)isonicotinic acid]",100 to 1000,100 to 1000,100 to 1000,100 to 1000,–
"O=C(O)c1ccnc(-n2nc(COc3ccccc3)cc2O)c1 [Example 10, 2-(5-hydroxy-3-(phenoxymethyl)-1H-pyrazol-1-yl)isonicotinic acid]",1000 to 10000,100 to 1000,> 10000,< 100,–
